Where two headings read alike, the source gives them in different places. Marks after values point to notes of the source that are not given here.
Experiments:
Or22a = molecular target: T1, Or22a (Drosophila melanogaster, UniProt P81909); test: EIS sensor, Or22a liposomes on gold electrode (Example 1); assay type: binding; conditions: Or22a liposomes, EIS
T1 sequence (P81909 1-397): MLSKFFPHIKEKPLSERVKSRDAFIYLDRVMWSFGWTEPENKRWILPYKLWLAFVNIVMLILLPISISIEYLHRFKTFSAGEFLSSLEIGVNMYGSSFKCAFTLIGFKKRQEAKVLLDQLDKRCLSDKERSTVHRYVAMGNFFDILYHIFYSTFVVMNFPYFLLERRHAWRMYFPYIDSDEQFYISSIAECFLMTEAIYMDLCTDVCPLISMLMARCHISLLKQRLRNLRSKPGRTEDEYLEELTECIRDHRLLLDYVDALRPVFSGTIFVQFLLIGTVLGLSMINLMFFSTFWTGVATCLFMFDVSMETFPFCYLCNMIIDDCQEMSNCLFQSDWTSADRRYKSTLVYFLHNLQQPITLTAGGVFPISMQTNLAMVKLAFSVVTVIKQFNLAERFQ
Method: Liposomes were prepared using a phospholipid solution produced by evaporating solutions containing: phosphatidylethanolamine (PE), phosphatidylserine (PS), phosphatidylcholine (PC), and cholesterol (CH) at a molar ratio of 5:3:3:1 in a small glass tube under a stream of N2 gas, then desiccating under vacuum for 1 h. […] To promote the formation of liposomes, 10 freeze/thaw steps were performed by transferring the tube from liquid nitrogen to a 40° C. water bath. Liposomes were then sized by passing the lipid solution 11 times through a 100-nm polycarbonate membrane using an Avestin LiposoFAST extruder unit (Avestin, Germany). Glycerol was added at 10% of the final volume and aliquots at 10 mg/mL were snap frozen in liquid nitrogen and stored at -80° C. Prior to their use, liposomes were defrosted on ice and then destabilized by incubating with 0.2% CHAPS for 15 min at room temperature. Then 200 μg of purified odorant receptor^14 was added to 1 mg of liposomes and rotated at 10 rpm for 1 h at room temperature. […] The Bio-Beads were removed after each incubation period. The OR integrated liposomes were pelleted by centrifugation at 100,000 g for 1 h, and were resuspended in 500 μL of rehydration buffer. Integration of OrXs into liposomes was assessed by density gradient ultracentrifugation (DGU) using Accudenz (Accurate Chemical & Scientific Corporation, USA). […] The sample was then centrifuged at 100,000 g for 4 h at 4° C. Liposomes will float to the top of the gradient after Accudenz DGU due to their low density. 1.3 Electrode Cleaning Gold disk (2 mm) electrodes were cleaned with polishing with Alumina paste for 2 minutes, ultra-sonicated in pure ethanol and then Milli-Q water for 5 minutes each. […] Charge transfer resistance (Rct) of electrodes were calculated by fitting obtained data to a Randles' equivalent circuit [Rs+CPE/(Rct+W)] comprising of a solution resistance (Rs) in series with a constant phase element (CPE) and in parallel with charge transfer resistance (Rct) and Warburg diffusion element. […]

DmOr22a/Orco = molecular target: T2, DmOr22a/Orco (Drosophila melanogaster, UniProt P81909); conditions: cited from earlier work; for Sensitivity limit (Log): given as Log, estimated visually from graph
T2 sequence (P81909 1-397): T1 sequence (P81909 1-397)
T2 sequence (Q9VNB5 1-486 partner): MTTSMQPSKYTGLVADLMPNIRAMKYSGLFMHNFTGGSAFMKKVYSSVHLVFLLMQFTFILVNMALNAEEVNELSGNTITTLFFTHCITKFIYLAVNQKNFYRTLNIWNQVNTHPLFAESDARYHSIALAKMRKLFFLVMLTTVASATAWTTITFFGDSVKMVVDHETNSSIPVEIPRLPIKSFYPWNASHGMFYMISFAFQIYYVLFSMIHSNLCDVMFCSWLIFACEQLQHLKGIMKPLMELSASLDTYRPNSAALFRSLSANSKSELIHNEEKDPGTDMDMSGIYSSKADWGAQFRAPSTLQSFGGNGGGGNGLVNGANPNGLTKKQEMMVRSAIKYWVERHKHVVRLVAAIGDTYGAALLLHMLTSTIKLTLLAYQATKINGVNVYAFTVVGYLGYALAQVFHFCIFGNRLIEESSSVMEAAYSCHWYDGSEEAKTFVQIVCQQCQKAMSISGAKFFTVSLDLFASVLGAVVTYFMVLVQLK

OR71a = molecular target: T3, OR71a (Drosophila melanogaster, UniProt Q9VUK5); test: EIS sensor, Or71a liposomes on gold electrode, optimized conditions (Example 5); assay type: binding
T3 sequence (Q9VUK5 1-378): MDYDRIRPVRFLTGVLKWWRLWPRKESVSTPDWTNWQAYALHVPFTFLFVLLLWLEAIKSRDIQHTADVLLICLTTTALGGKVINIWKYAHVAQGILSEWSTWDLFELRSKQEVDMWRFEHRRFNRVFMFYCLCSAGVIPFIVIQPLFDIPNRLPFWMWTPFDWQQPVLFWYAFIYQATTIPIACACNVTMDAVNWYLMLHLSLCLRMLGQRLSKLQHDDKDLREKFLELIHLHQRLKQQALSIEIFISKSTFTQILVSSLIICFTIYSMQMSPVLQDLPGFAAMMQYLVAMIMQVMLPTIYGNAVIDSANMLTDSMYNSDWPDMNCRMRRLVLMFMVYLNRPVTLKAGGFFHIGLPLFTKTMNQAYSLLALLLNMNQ

Row | EIS response to control ligand (OR71a) | Compound | EC50 (Or22a) [nM] | Sensitivity limit (lowest detectable concentration) (Or22a; signal/noise >3) [pM] | Sensitivity limit (Log) (DmOr22a/Orco; ref 23) | EC50 (DmOr22a/Orco; ref 24) [nM] | Sensitivity limit (Log) (DmOr22a/Orco; ref 24)
1 |  | CCCCCC(=O)OC [methyl hexanoate] | ~10 | 280 | Log = −7.5* | 1170 | Log = −7*
2 | do not respond | COC(=O)c1ccccc1O [methyl salicylate] |  |  |  |  | 

Reference: patent US12044651B2, “Sensor device and methods” (SCENTIAN BIO LIMITED, priority 2016, dated 2024)
